Assay results from ChEMBL document CHEMBL1201862, “PubChem BioAssay data set” (2004).
Calls of active or inactive are those of the source.

Columns and labels:
[1] = molecular target: Alkaline phosphatase, placental type (Homo sapiens, UniProt P05187); assay: human placental alkaline phosphatase inhibition – biochemical, luminescence, confirmation (AID 1512); type: functional
[2] = molecular target: T1, Alkaline phosphatase, tissue-nonspecific isozyme (Homo sapiens, UniProt P05186); assay: potency against alkaline phosphatase TNAP – biochemical, luminescent, dose response, SAR follow-up (AID 1056)
T1 sequence (P05186 whole entry): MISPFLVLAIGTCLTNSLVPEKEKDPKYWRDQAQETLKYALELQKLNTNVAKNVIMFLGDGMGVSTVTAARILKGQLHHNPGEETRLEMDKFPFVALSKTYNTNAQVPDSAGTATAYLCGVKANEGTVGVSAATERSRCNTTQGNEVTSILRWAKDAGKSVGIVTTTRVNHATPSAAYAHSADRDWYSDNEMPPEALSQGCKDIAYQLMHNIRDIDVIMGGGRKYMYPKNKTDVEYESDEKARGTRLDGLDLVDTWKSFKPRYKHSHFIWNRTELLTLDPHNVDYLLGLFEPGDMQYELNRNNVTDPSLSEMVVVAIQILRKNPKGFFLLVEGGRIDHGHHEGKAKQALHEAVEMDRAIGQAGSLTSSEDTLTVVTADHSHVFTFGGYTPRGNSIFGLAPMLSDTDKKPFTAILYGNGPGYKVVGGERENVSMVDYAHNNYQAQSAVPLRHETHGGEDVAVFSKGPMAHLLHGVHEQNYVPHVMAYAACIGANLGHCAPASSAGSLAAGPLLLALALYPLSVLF

Large T antigen = Large T antigen (Simian virus 40, UniProt P03070); type: functional, Betapolyomavirus macacae;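 also: Confirmatory-stage PubChem screen for compounds that inhibit SV40 T antigen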
HEK293 [3] = assay: cells; settings: Homo sapiens
HEK293 [4] = assay: cells; settings: Homo sapiens; remark: listed apart in the source
[5] = molecular target: T2, E3 ubiquitin-protein ligase XIAP (Homo sapiens, UniProt P98170); assay: small molecules displacing peptide from XIAP – biochemical, IAP family, fluorescence polarization (AID 1018); type: functional
[6] = molecular target: T2, E3 ubiquitin-protein ligase XIAP; assay: Counter Screen using XIAP-Bir3 for Chemical Antagonists of Bir1/2 domains of IAP-family anti-apoptotic proteins. [Related pubchem assays (depositor defined):AID1018, AID1449, AID1514, AID1638, AID1749, AID1750, AID488957, AID488963]
cells [7] = type: functional, cell-based
INS1 = assay: INS-1E survival protection against cytokine death – cell-based, luminescence, retest, dose response (AID 449756); type: functional; settings: Rattus norvegicus;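 also: cell death triggered by IL-1 beta plus TNF-alpha plus IFN-gamma mixture; protective hits raise ATP signal compared with cytokine alone wells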
BJ [8] = assay: BJ-TERT-LT-ST fibroblast viability loss – cell-based, RAS-independent, luminescence, dose response (AID 1935); type: functional; settings: Homo sapiens;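 also: BJ fibroblasts immortalized with TERT plus LT and ST oncogenes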
BJ [9] = assay: BJ-TERT fibroblast viability loss – cell-based, RAS-independent, luminescence, dose response (AID 1933); type: functional; settings: Homo sapiens
[10] = Counterscreen for AddAB inhibitors: absorbance-based bacterial cell-based high throughput dose response assay for inhibitors of bacterial viability. [Related pubchem assays (depositor defined):AID435030, AID449728, AID449731, AID488942, AID488955, AID488956]; type: functional
BJ [11] = assay: cells; type: functional, cell-based; settings: Homo sapiens
[12] = DRD fibroblast viability loss – cell-based, non-viral oncogenic, luminescence, dose response (AID 1934); type: functional; settings: Homo sapiens
[13] = microbe, parasite or virus in culture; type: functional; settings: Mycobacterium tuberculosis
BJ [14] = assay: growth inhibition of engineered Ras-driven BJ cells – cell-based, alamar blue fluorescence, cherrypicked samples, dose response (AID 2631); type: functional; settings: Homo sapiens;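 also: confirmatory dose-response assay in RAS-dependent BJ fibroblasts engineered with TERT, LT and ST, with cytotoxicity read by fluorescence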
cells [15] = type: functional, cell-based; remark: listed apart in the source
Exodeoxyribonuclease V = Exodeoxyribonuclease V (Escherichia coli (strain K12), UniProt P04993+P07648+P08394); assay: RecBCD inhibition via phage-restricted bacterial growth – absorbance, V66 E. coli, mutant T4 phage, counter-screen for AddAB inhibitor project, dose response (AID 492957); type: functional, cell-based, Escherichia coli str. K-12 substr. MG1655
Exodeoxyribonuclease V, sequence (P04993 whole entry): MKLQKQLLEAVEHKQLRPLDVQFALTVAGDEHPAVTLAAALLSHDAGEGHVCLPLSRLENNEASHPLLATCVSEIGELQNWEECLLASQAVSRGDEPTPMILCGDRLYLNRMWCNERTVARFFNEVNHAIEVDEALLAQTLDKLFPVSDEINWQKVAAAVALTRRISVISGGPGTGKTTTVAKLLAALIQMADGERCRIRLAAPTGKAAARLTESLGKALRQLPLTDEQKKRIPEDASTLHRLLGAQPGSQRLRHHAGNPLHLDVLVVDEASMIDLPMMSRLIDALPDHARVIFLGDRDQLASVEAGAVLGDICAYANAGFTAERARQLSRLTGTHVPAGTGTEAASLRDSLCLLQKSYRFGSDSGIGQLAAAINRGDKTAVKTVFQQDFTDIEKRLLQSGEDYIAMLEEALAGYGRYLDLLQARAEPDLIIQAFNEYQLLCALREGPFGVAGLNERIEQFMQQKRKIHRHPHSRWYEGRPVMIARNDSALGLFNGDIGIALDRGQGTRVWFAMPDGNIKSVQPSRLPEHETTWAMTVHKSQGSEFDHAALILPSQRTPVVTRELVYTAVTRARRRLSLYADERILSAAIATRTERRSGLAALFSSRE
Exodeoxyribonuclease V, sequence (P07648 whole entry): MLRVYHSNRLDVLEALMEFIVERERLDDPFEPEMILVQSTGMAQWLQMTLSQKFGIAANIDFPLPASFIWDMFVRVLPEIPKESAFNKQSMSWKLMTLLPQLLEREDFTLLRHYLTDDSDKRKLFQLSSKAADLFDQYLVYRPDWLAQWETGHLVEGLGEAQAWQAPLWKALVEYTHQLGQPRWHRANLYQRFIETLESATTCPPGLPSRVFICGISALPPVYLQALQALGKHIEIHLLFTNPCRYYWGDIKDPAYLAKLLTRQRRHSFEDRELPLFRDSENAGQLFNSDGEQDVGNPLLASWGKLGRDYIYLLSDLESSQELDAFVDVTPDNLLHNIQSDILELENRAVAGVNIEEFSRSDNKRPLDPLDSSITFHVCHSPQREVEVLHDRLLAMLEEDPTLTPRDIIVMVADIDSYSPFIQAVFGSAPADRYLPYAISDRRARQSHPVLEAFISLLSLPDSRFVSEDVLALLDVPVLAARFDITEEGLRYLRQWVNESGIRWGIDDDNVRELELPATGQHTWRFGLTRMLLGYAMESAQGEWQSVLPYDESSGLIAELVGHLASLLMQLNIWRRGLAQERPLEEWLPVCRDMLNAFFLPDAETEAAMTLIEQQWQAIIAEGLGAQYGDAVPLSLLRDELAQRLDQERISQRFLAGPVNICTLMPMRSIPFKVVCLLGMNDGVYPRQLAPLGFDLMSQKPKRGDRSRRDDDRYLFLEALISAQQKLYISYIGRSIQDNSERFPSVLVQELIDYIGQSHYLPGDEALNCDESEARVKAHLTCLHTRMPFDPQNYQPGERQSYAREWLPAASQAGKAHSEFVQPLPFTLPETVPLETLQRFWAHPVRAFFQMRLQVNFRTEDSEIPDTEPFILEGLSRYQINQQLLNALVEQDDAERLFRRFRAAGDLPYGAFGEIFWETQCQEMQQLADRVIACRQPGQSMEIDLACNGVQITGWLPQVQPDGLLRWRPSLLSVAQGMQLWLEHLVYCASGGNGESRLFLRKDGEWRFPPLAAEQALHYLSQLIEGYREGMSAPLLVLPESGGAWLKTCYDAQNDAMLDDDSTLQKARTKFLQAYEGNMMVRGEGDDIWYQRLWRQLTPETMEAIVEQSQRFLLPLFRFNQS
Exodeoxyribonuclease V, sequence (P08394 whole entry): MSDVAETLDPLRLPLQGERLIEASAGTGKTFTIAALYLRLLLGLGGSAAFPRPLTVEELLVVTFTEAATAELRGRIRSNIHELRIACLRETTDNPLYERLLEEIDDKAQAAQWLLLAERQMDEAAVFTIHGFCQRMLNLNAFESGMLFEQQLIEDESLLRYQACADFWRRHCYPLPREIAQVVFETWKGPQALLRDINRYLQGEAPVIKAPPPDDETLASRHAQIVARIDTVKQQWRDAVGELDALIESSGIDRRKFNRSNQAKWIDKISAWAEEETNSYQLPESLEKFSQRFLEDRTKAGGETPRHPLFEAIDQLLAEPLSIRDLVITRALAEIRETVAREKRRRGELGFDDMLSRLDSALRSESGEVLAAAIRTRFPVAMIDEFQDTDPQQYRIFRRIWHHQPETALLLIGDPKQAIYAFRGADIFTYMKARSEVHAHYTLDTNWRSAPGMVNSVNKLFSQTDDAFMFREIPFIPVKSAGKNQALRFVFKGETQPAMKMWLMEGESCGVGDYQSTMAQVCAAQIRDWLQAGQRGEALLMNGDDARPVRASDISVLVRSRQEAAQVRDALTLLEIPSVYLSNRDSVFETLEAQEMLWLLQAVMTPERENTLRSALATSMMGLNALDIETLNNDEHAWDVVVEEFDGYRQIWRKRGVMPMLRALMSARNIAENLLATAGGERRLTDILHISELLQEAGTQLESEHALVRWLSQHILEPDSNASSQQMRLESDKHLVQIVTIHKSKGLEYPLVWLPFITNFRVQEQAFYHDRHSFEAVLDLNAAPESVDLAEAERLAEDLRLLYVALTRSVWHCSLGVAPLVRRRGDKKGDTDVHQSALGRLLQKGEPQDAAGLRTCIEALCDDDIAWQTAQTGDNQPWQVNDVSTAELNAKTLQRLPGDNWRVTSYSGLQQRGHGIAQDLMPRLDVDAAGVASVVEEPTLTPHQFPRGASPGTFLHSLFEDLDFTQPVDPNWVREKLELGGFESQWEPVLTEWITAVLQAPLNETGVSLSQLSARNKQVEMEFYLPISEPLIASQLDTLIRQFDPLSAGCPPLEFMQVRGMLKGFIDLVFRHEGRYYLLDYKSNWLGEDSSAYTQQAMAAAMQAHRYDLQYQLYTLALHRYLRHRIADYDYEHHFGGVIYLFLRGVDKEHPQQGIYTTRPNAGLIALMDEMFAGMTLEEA

Alkaline phosphatase, placental type, sequence (P05187 whole entry): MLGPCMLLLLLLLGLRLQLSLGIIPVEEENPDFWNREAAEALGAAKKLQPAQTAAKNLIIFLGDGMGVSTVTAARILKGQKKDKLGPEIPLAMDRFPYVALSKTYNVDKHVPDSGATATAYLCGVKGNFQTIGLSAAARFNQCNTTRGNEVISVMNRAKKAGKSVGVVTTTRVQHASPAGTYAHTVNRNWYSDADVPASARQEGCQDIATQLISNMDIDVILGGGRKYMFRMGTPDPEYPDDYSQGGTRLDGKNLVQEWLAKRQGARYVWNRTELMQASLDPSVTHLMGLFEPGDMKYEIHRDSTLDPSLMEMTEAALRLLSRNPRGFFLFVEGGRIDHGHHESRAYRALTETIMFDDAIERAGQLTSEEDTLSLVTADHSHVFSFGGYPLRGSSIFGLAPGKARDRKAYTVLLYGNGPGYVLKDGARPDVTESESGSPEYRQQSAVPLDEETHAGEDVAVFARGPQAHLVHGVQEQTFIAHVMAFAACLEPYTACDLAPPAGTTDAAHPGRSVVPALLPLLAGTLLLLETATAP
T2 sequence (P98170 whole entry): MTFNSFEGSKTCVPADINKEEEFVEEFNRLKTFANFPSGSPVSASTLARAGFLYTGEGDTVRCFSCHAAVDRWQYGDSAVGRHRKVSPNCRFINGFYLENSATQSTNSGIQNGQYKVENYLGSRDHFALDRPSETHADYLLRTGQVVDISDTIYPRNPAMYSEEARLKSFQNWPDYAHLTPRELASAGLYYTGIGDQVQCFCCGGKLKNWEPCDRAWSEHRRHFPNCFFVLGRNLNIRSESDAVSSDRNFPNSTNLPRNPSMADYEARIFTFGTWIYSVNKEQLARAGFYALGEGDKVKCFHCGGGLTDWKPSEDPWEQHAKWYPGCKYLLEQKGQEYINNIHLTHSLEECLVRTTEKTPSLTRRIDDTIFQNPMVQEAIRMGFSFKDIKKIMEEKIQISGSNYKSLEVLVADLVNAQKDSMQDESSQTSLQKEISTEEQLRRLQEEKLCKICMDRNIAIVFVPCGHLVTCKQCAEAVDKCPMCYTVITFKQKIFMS
Large T antigen, sequence (P03070 whole entry): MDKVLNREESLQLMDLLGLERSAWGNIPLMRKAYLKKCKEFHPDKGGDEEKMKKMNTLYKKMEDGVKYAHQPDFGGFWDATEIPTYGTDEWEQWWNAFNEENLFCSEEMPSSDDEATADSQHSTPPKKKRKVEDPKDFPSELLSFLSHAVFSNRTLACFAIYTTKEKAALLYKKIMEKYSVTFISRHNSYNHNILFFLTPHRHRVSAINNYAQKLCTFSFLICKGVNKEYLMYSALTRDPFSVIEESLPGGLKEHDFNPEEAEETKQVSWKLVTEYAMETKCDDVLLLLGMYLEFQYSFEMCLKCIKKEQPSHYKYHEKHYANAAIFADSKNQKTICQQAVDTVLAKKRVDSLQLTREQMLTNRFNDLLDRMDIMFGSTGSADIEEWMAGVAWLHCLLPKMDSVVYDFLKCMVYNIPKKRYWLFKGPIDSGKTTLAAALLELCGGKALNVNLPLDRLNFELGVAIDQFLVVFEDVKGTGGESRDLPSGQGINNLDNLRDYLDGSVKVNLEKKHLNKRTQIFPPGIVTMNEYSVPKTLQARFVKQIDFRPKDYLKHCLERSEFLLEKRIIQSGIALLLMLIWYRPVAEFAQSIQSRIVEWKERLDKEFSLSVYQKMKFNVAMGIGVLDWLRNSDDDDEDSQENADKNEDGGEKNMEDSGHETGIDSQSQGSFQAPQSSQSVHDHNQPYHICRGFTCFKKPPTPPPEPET

C=CCn1c(SCC(=O)c2ccc(O)c(O)c2)nnc1-c1ccc(C(C)(C)C)cc1
IC50 [1]: 97.5 µM (active) | IC50 [2]: > 100 µM (inactive)

Cn1c(SCC(=O)c2ccc(O)c(O)c2)nnc1-c1cccs1
IC50 [1]: 4.9 µM (active) | IC50 [2]: > 100 µM (inactive) | IC50 (Large T antigen): > 100 µM (active)

CC(C)Cc1cc(-c2ccco2)c(C#N)c(N)n1
EC50 (HEK293 [3]): > 59.6 µM (inactive) | EC50 (HEK293 [4]): > 59.6 µM (inactive)

Cc1ccc(C(=O)N/N=C\c2ccccc2[N+](=O)[O-])cn1
IC50 [5]: > 100 µM (not active) | IC50 [6]: > 100 µM (inactive)

COc1ccc(N/N=C(/N=Nc2nc(C)cc(O)n2)c2ccccc2)cc1
EC50 (cells [7]): 3.44 µM (active) | AC50 (INS1): < 0.195 µM (active) | EC50 (BJ [8]): 4.21 µM (active) | EC50 (BJ [9]): 4.09 µM (active) | IC50 [10]: > 119 µM (inactive) | EC50 (BJ [11]): 3.68 µM (active) | EC50 [12]: 5.72 µM (active) | CC50 [13]: 6.39 µM (active) | EC50 (BJ [14]): 0.615 µM (active) | EC50 (cells [15]): 5.67 µM (active) | IC50 (Exodeoxyribonuclease V): > 119 µM (inactive)
